This is an account of results in ChEMBL document CHEMBL2010684, “JBIR-78 and JBIR-95: phenylacetylated peptides isolated from Kibdelosporangium sp. AK-AA56” (2012).

Structures are written as SMILES.

This experiment has as its system Micrococcus luteus. Put plainly: Antimicrobial activity against Micrococcus luteus at 10 ug after 24 hrs by paper disk method. The class given is functional. Conditions: read-out: DIZ.

Turning to `CC[C@H]1OC(=O)[C@H](C)[C@@H](O[C@H]2C[C@@](C)(OC)[C@@H](O)[C@H](C)O2)[C@H](C)[C@@H](O[C@@H]2O[C@H](C)C[C@H](N(C)C)[C@H]2O)[C@](C)(O)C[C@@H](C)C(=O)[C@H](C)[C@@H](O)[C@]1(C)O` [ERYTHROMYCIN], the zone of inhibition at 10 µg/disc is 25 mm.

In the case of `CC(C)[C@H](NC(=O)Cc1ccccc1)C(=O)N[C@H](CC(=O)O)C(=O)N[C@@H](C)C(=O)N[C@@H](C(=O)NCC(=O)N[C@H](C)C(=O)N[C@@H](Cc1ccccc1)C(=O)O)[C@@H](O)C(C)C`, the zone of inhibition at 10 µg/disc came to 7.1 mm.
